Test results: patent EP0349354A1, “Peptides PF10 to PF19 from a retro virus HIV, method for the synthesis of these peptides and their use, particularly in diagnostics” (INSTITUT PASTEUR, priority 1988, dated 1990)
Where no end group is shown, it is not given here. The star is where a group is joined. Acm = CC(=O)NC*

What was measured:
[1] = system: anticorps anti-protéine F; experiment: Western blot test on peptide spots with sera of HIV-1 infected patients; type: binding, humain; set-up: key to réaction avec sérum CHA 1/300, 10µl / réaction avec sérum LOM 1/100, 10µl / réaction avec sérum LOM 1/100, 5µl / réaction avec sérum CHA 1/300, 5µl / réaction avec sérum CHA 1/300, 2µl / réaction avec sérum CHA 1/300, 1µl / réaction avec sérum 1545 1/200, 10µl: ++ signifiant une réaction plus marquée
Procedure: Pour les besoins du test, les différents peptides PF16, PF19, PF13, PF17 utilisés sont dilués à une concentration de 2 mg/ml.
Sur une bande de papier BIORAD pour transblot, on dépose différents spots : 1µl, 2µl, 5µl, 10µl.
Après séchage on pratique un test Western Blot classique en utilisant comme anticorps des sérums de patients infectés par le virus HIV-1, positifs pour la protéine F, à des dilutions variant de 1/100 à 1/300.
Les peptides testés permettent d'aboutir aux résultats résumés dans le tableau 2 avec trois sérums différents anti-F ++ (++ signifiant une réaction plus marquée).

[2] = system: anticorps, monoclonal anti-protéine F d'un rétrovirus HIV-1; experiment: ELISA with mouse monoclonal anti-protein F antibody; type: binding, souris; settings: antibody produced in mouse
Excerpt: Par ailleurs, les inventeurs ont constaté qu'un anticorps, monoclonal anti-protéine F d'un rétrovirus HIV-1 produit chez la souris reconnait le peptide PF16 de l'invention dans un test ELISA.

[3] = system: anticorps anti-nef; experiment: ELISA for detection of anti-nef antibodies on coated peptides or nef; type: binding, humain

GMDDPEREVLEWRFDSRLAFHHVARELHPEYFKNC(acm) (GMDDPEREVLEWRFDSRLAFHHVARELHPEYFKNC(Acm)) [PF16, protéine F HIV-1, séquence 171-205]
réaction avec sérum 1545 1/200, 10µl ([1]; serum 1545 diluted 1/200, spot 10µl of peptide at 2 mg/ml): ++ | réaction avec sérum CHA 1/300, 1µl ([1]; serum CHA diluted 1/300, spot 1µl of peptide at 2 mg/ml): ++ | réaction avec sérum CHA 1/300, 2µl ([1]; serum CHA diluted 1/300, spot 2µl of peptide at 2 mg/ml): ++ | réaction avec sérum CHA 1/300, 5µl ([1]; serum CHA diluted 1/300, spot 5µl of peptide at 2 mg/ml): ++ | réaction avec sérum CHA 1/300, 10µl ([1]; serum CHA diluted 1/300, spot 10µl of peptide at 2 mg/ml): ++ | réaction avec sérum LOM 1/100, 5µl ([1]; serum LOM diluted 1/100 (column outside the heading of positive sera), spot 5µl of peptide at 2 mg/ml): ++ | réaction avec sérum LOM 1/100, 10µl ([1]; serum LOM diluted 1/100 (column outside the heading of positive sera), spot 10µl of peptide at 2 mg/ml): ++ | reconnaissance par un anticorps monoclonal anti-protéine F [2]: reconnait | nombre de sérums anti-nef positifs ayant réagi ([3]; ELISA, out of 31 anti-nef positive sera): 26 | intensité de l'immunoréactivité (OD), Serum 1 ([3]; Serum 1, anti-nef positive, 500 ng coated per well): +++ (pour OD = 0,8 à 2,0) | intensité de l'immunoréactivité (OD), Serum 2 ([3]; Serum 2, anti-nef positive, 500 ng coated per well): +++ (pour OD = 0,8 à 2,0) | intensité de l'immunoréactivité (OD), Serum 3 ([3]; Serum 3, anti-nef positive, 500 ng coated per well): + (pour OD = 0,2 à 0,4) | intensité de l'immunoréactivité (OD), Serum 4 ([3]; Serum 4, anti-nef positive, 500 ng coated per well): +++ (pour OD = 0,8 à 2,0) | intensité de l'immunoréactivité (OD), Serum 5 ([3]; Serum 5, anti-nef positive, 500 ng coated per well): +++ (pour OD = 0,8 à 2,0) | intensité de l'immunoréactivité (OD), Serum 6 ([3]; Serum 6, anti-nef positive, 500 ng coated per well): +++ (pour OD = 0,8 à 2,0) | intensité de l'immunoréactivité (OD), Serum 7 ([3]; Serum 7, anti-nef positive, 500 ng coated per well): - (pour une densité optique (OD) inférieure à 0,2) | intensité de l'immunoréactivité (OD), Serum 8 ([3]; Serum 8, anti-nef positive, 500 ng coated per well): - (pour une densité optique (OD) inférieure à 0,2) | intensité de l'immunoréactivité (OD), Serum 9 ([3]; Serum 9, anti-nef positive, 500 ng coated per well): - (pour une densité optique (OD) inférieure à 0,2) | intensité de l'immunoréactivité (OD), Serum 10 ([3]; Serum 10, anti-nef positive, 500 ng coated per well): + (pour OD = 0,2 à 0,4) | intensité de l'immunoréactivité (OD), Serum 11 ([3]; Serum 11, anti-nef positive, 500 ng coated per well): + (pour OD = 0,2 à 0,4) | intensité de l'immunoréactivité (OD), Serum 12 ([3]; Serum 12, anti-nef positive, 500 ng coated per well): - (pour une densité optique (OD) inférieure à 0,2) | intensité de l'immunoréactivité (OD), Serum 13 ([3]; Serum 13, anti-nef positive, 500 ng coated per well): ++ (pour OD = 0,4 à 0,8) | intensité de l'immunoréactivité (OD), Serum 14 ([3]; Serum 14, anti-nef positive, 500 ng coated per well): - (pour une densité optique (OD) inférieure à 0,2) | intensité de l'immunoréactivité (OD), Serum 15 ([3]; Serum 15, anti-nef positive, 500 ng coated per well): +++ (pour OD = 0,8 à 2,0) | intensité de l'immunoréactivité (OD), Serum 16 ([3]; Serum 16, anti-nef positive, 500 ng coated per well): +++ (pour OD = 0,8 à 2,0) | intensité de l'immunoréactivité (OD), Serum 17 ([3]; Serum 17, anti-nef positive, 500 ng coated per well): ++ (pour OD = 0,4 à 0,8) | intensité de l'immunoréactivité (OD), Serum 18 ([3]; Serum 18, anti-nef positive, 500 ng coated per well): +++ (pour OD = 0,8 à 2,0) | intensité de l'immunoréactivité (OD), Serum 19 ([3]; Serum 19, anti-nef positive, 500 ng coated per well): +++ (pour OD = 0,8 à 2,0) | intensité de l'immunoréactivité (OD), Serum 20 ([3]; Serum 20, anti-nef positive, 500 ng coated per well): ++ (pour OD = 0,4 à 0,8) | intensité de l'immunoréactivité (OD), Serum 21 ([3]; Serum 21, anti-nef positive, 500 ng coated per well): +++ (pour OD = 0,8 à 2,0) | intensité de l'immunoréactivité (OD), Serum 22 ([3]; Serum 22, anti-nef positive, 500 ng coated per well): +++ (pour OD = 0,8 à 2,0) | intensité de l'immunoréactivité (OD), Serum 23 ([3]; Serum 23, anti-nef positive, 500 ng coated per well): ++ (pour OD = 0,4 à 0,8) | intensité de l'immunoréactivité (OD), Serum 24 ([3]; Serum 24, anti-nef positive, 500 ng coated per well): +++ (pour OD = 0,8 à 2,0) | intensité de l'immunoréactivité (OD), Serum 25 ([3]; Serum 25, anti-nef positive, 500 ng coated per well): +++ (pour OD = 0,8 à 2,0) | intensité de l'immunoréactivité (OD), Serum 26 ([3]; Serum 26, anti-nef positive, 500 ng coated per well): +++ (pour OD = 0,8 à 2,0) | intensité de l'immunoréactivité (OD), Serum 27 ([3]; Serum 27, anti-nef positive, 500 ng coated per well): + (pour OD = 0,2 à 0,4) | intensité de l'immunoréactivité (OD), Serum 28 ([3]; Serum 28, anti-nef positive, 500 ng coated per well): ++ (pour OD = 0,4 à 0,8) | intensité de l'immunoréactivité (OD), Serum 29 ([3]; Serum 29, anti-nef positive, 500 ng coated per well): ++ (pour OD = 0,4 à 0,8) | intensité de l'immunoréactivité (OD), Serum 30 ([3]; Serum 30, anti-nef positive, 500 ng coated per well): ++ (pour OD = 0,4 à 0,8) | intensité de l'immunoréactivité (OD), Serum 31 ([3]; Serum 31, anti-nef positive, 500 ng coated per well): +++ (pour OD = 0,8 à 2,0) | intensité de l'immunoréactivité (OD), Serum 32 ([3]; Serum 32, anti-nef negative control serum, 500 ng coated per well): - (pour une densité optique (OD) inférieure à 0,2) | intensité de l'immunoréactivité (OD), Serum 33 ([3]; Serum 33, anti-nef negative control serum, 500 ng coated per well): - (pour une densité optique (OD) inférieure à 0,2)
